Tests used:
[1] = for vapor or sublimation pressure: Transpiration method; for Normal melting temperature: DTA; for Triple point temperature: DSC
[2] = Molar enthalpy of transition or fusion; conditions: DSC

CCc1c(Br)c(Br)c(Br)c(Br)c1Br [pentabromoethylbenzene]
[1], Crystal
Conditions	vapor or sublimation pressure [kPa]
322.7 K	3.7e-06
327.6 K	6.1e-06
332.6 K	1.04e-05
337.5 K	1.7e-05
342.4 K	3.2e-05
347.4 K	4.9e-05
352.3 K	8.3e-05
357.4 K	0.00013
362.3 K	0.00021
367.3 K	0.00032

Crystal
Conditions	Molar enthalpy of transition or fusion [kcal/mol]	Normal melting temperature [°C]
[1]	–	135.8
[2]	3.2	–

Oc1c(Br)c(Br)c(Br)c(Br)c1Br [pentabromophenol]
[1], Crystal 2
Conditions	vapor or sublimation pressure [kPa]
322.9 K	1.9e-07
327.8 K	3.6e-07
332.8 K	6.7e-07
337.7 K	1.2e-06
342.6 K	2.3e-06
347.6 K	4.2e-06
352.6 K	7.8e-06
357.6 K	1.4e-05
362.6 K	2.7e-05
367.4 K	4.5e-05

Conditions	Molar enthalpy of transition or fusion, [2] [kcal/mol]	Triple point temperature, [1] [K]
Crystal 1	4.42	496.3
Crystal 2	2.82	416.2

Cc1c(Br)c(Br)c(Br)c(Br)c1Br [pentabromomethylbenzene]
[1], Crystal
Conditions	vapor or sublimation pressure [kPa]
322.9 K	2.7e-07
327.8 K	5.1e-07
332.9 K	9.1e-07
337.6 K	1.62e-06
342.7 K	2.9e-06
347.6 K	5.5e-06
352.6 K	9e-06
357.6 K	1.5e-05
362.5 K	2.7e-05
367.6 K	4.2e-05

Crystal
Conditions	Molar enthalpy of transition or fusion [kcal/mol]	Normal melting temperature [°C]
[1]	–	286
[2]	7	–

Cc1c(Br)c(Br)c(C)c(Br)c1Br [1,2,4,5-tetrabromodimethylbenzene]
[1], Crystal
Conditions	vapor or sublimation pressure [kPa]
322.8 K	2.4e-06
327.7 K	4.2e-06
332.7 K	7.2e-06
337.5 K	1.25e-05
342.5 K	2.1e-05
347.5 K	3.6e-05
352.4 K	5.9e-05
357.5 K	0.0001
362.4 K	0.00016
367.4 K	0.00025

Crystal
Conditions	Molar enthalpy of transition or fusion [kcal/mol]	Normal melting temperature [°C]
[1]	–	254.2
[2]	5.71	–

BrCC(Br)COc1c(Br)cc(Br)cc1Br (centres undefined) [1,3,5-tribromo(2,3-dibromopropoxy)benzene]
[1], Liquid
Conditions	vapor or sublimation pressure [kPa]
322.9 K	1.9e-06
327.8 K	3.2e-06
332.7 K	5.5e-06
337.7 K	9.6e-06
342.7 K	1.7e-05
347.7 K	2.7e-05
352.7 K	4.3e-05
357.7 K	6.7e-05
362.7 K	0.00013
367.7 K	0.00016

Conditions	Molar enthalpy of transition or fusion, [2] [kcal/mol]	Triple point temperature, [1] [K]
Crystal 1	0.612	313.7
Crystal 2	4.09	307.9
